From patent US10874334B1, “Methods and systems for quantification of blood-brain barrier permeation of glycosylated peptides” (ARIZONA BOARD OF REGENTS ON BEHALF OF THE UNIVERSITY OF …, priority 2016, dated 2020)

Experiments:
[1] = Degradation study of enkephalins spiked into rodent serum (FIA-MS^n); conditions: for stability (degradation) in serum with 5% acetic acid: rat serum + 5% acetic acid (HAc), 60-minute period before measurements (Ser+HAc+60 min); for stability (degradation) in serum: rat serum, peptides incubated in serum for 60 minutes prior to the study (Ser+60 min)
Method: Ser refers to when Enkephalins were added to rat serum and degradation was allowed to proceed and the remaining enkephalin levels were measured at specific time points. […] Ser+HAc+60 min refers to when 5% acetic acid (HAc) was added to the serum, preserving enkephalins by inhibiting degradation during a 60 minute period before beginning measurements (Ser+HAc+60 min.). All error bars are SEM. Statistical significance is indicated by asterisks when p<0.05.
Degradation studies of enkephalins in biological fluids were performed by […]. […] Enkephalins were added to rat serum and degradation was allowed to proceed and the remaining enkephalin levels were measured at specific time points (Ser).

[2] = Degradation study of enkephalins spiked into cerebral spinal fluid (CSF) from rats; conditions: for stability (degradation) in CSF with 5% HAc: CSF from rats + 5% HAc (+CSF+HAc), compared with isotonic aCSF

Row | Molecule | stability (degradation) in serum with 5% acetic acid [1] | stability (degradation) in serum [1] | stability (degradation) in CSF ([2]; CSF from rats (+CSF), single exponential decay fit) | stability (degradation) in CSF with 5% HAc [2]
1 | CC(C)C[C@H](NC(=O)[C@H](Cc1ccccc1)NC(=O)CNC(=O)CNC(=O)[C@@H](N)Cc1ccc(O)cc1)C(=O)O [Leu-Enkephalin, leucine enkephalin] | preserved enkephalins by inhibiting degradation | degradation was already complete | degradation occurs in CSF over 20 minutes | prevents the degradation
2 | methionine enkephalin [Met-Enkephalin] | preserved enkephalins by inhibiting degradation | degradation was already complete |  | prevents the degradation
